In PubChem BioAssay AID256 (DTP/NCI, 2004):
“And” between values parts separate entries of the source, which are not always exact repeats. Identical values can stand only once. Inconclusive results and toxic doses are left out.

Tested on: CD2F1 mice, L1210 leukemia ip, survival T/C
Experiment: NCI In Vivo Anticancer Drug Screen. Data for tumor model L1210 Leukemia (intraperitoneal) in CD2F1 (CDF1) mice
Details: higher = longer survival
Method in brief: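 In this screen, transplantable tumors were grown in mice given either the compound or its vehicle. Results were expressed as the treated measurement relative to the control measurement.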

[1] = endpoint: mean survival time, dose: 100.0 mg/kg/injection, schedule: Q01DX009 (ip), vehicle: saline with Tween-80
[2] = endpoint: mean survival time, dose: 100.0 mg/kg/injection, schedule: Q04DX003 (ip), vehicle: saline with Tween-80
[3] = endpoint: mean survival time, dose: 200.0 mg/kg/injection, schedule: Q01DX009 (ip), vehicle: saline with Tween-80
[4] = endpoint: mean survival time, dose: 200.0 mg/kg/injection, schedule: Q04DX003 (ip), vehicle: saline with Tween-80
[5] = endpoint: mean survival time, dose: 400.0 mg/kg/injection, schedule: Q01DX009 (ip), vehicle: saline with Tween-80
[6] = endpoint: mean survival time, dose: 400.0 mg/kg/injection, schedule: Q04DX003 (ip), vehicle: saline with Tween-80
[7] = endpoint: mean survival time, dose: 50.0 mg/kg/injection, schedule: Q01DX009 (ip), vehicle: saline with Tween-80
[8] = endpoint: mean survival time, dose: 100.0 mg/kg/injection, schedule: Q04DX002 (ip), vehicle: saline with Tween-80
[9] = endpoint: mean survival time, dose: 200.0 mg/kg/injection, schedule: Q04DX002 (ip), vehicle: saline with Tween-80
[10] = endpoint: mean survival time, dose: 12.5 mg/kg/injection, schedule: Q01DX009 (ip), vehicle: saline with Tween-80
[11] = endpoint: mean survival time, dose: 25.0 mg/kg/injection, schedule: Q01DX009 (ip), vehicle: saline with Tween-80
[12] = endpoint: mean survival time, dose: 25.0 mg/kg/injection, schedule: Q04DX002 (ip), vehicle: saline with Tween-80
[13] = endpoint: mean survival time, dose: 50.0 mg/kg/injection, schedule: Q04DX002 (ip), vehicle: saline with Tween-80

COc1ccc(C(C)C(OC(=O)c2ccc([N+](=O)[O-])cc2)c2ccccc2)cc1 (centres undefined)
T/C [1]: 94 % of control | T/C [2]: 88 % of control | T/C [3]: 88 % of control | T/C [4]: 97 % of control | T/C [5]: 103 % of control | T/C [6]: 94 % of control

Cc1cn2ccccc2c[n+]1=O
T/C (endpoint: mean survival time, dose: 5.0 mg/kg/injection, schedule: Q04DX003 (ip), vehicle: saline with Tween-80): 103 % of control | T/C (endpoint: mean survival time, dose: 10.0 mg/kg/injection, schedule: Q04DX003 (ip), vehicle: saline with Tween-80): 108 % of control | T/C (endpoint: mean survival time, dose: 20.0 mg/kg/injection, schedule: Q04DX003 (ip), vehicle: saline with Tween-80): 97 % of control

Nc1ncnc2nc(-c3ccccc3)[nH]c12
T/C [2]: 100 % of control | T/C [4]: 99 % of control | T/C [6]: 99 % of control

CC(CN1c2ccccc2Sc2ccccc21)N(C)CCO (centres undefined)
T/C (endpoint: mean survival time, dose: 50.0 mg/kg/injection, schedule: Q01DX001 (ip), vehicle: saline): 101 % of control | T/C (endpoint: mean survival time, dose: 100.0 mg/kg/injection, schedule: Q01DX001 (ip), vehicle: saline): 101 % of control | T/C (endpoint: mean survival time, dose: 200.0 mg/kg/injection, schedule: Q01DX001 (ip), vehicle: saline): 97 % of control | T/C (endpoint: mean survival time, dose: 400.0 mg/kg/injection, schedule: Q01DX001 (ip), vehicle: saline): 97 % of control

Cc1cc(=O)[nH]c(=S)[nH]1.[Pd]
T/C (endpoint: mean survival time, dose: 3.12 mg/kg/injection, schedule: Q04DX003 (ip), vehicle: saline): 103 % of control | T/C (endpoint: mean survival time, dose: 6.25 mg/kg/injection, schedule: Q04DX003 (ip), vehicle: saline): 108 % of control | T/C (endpoint: mean survival time, dose: 12.5 mg/kg/injection, schedule: Q04DX003 (ip), vehicle: saline): 105 % of control | T/C (endpoint: mean survival time, dose: 25.0 mg/kg/injection, schedule: Q04DX003 (ip), vehicle: saline): 100 % of control | T/C (endpoint: mean survival time, dose: 50.0 mg/kg/injection, schedule: Q04DX003 (ip), vehicle: saline): 102 % of control | T/C (endpoint: mean survival time, dose: 100.0 mg/kg/injection, schedule: Q04DX003 (ip), vehicle: saline): 102 % of control | T/C (endpoint: mean survival time, dose: 200.0 mg/kg/injection, schedule: Q04DX003 (ip), vehicle: saline): 100 % of control

COC(=O)N1c2ccc(OC)cc2C=CC1C#N (centres undefined)
T/C [1]: 94 % of control | T/C [2]: 96 % of control | T/C [3]: 95 % of control | T/C [4]: 102 % of control | T/C [5]: 103 % of control | T/C [6]: 94 % of control

Nc1cc(=O)[nH]c(O)c1C(=O)O
T/C [7]: 104 % of control | T/C [1]: 96 % of control

COc1c(C)c2c(c3c1CC(O)O3)C(=O)OC2 (centres undefined)
T/C [8]: 112 % of control | T/C [9]: 103 % of control | T/C (endpoint: mean survival time, dose: 400.0 mg/kg/injection, schedule: Q04DX002 (ip), vehicle: saline with Tween-80): 106 % of control

CN(C)N=Nc1ccc(SC#N)cc1C(N)=O
T/C (endpoint: mean survival time, dose: 18.8 mg/kg/injection, schedule: Q01DX009 (ip), vehicle: Klucel (hydroxypropylcellulose) (HPC)): 93 % of control and 103 % of control | T/C (endpoint: mean survival time, dose: 37.5 mg/kg/injection, schedule: Q01DX009 (ip), vehicle: Klucel (hydroxypropylcellulose) (HPC)): 97 % of control and 106 % of control | T/C (endpoint: mean survival time, dose: 75.0 mg/kg/injection, schedule: Q01DX009 (ip), vehicle: Klucel (hydroxypropylcellulose) (HPC)): 107 % of control and 108 % of control | T/C (endpoint: mean survival time, dose: 150.0 mg/kg/injection, schedule: Q01DX009 (ip), vehicle: Klucel (hydroxypropylcellulose) (HPC)): 88 % of control and 110 % of control

CN(C)N=Nc1ccc(C#N)cc1
T/C (endpoint: mean survival time, dose: 7.37 mg/kg/injection, schedule: Q01DX009 (ip), vehicle: Klucel (hydroxypropylcellulose) (HPC)): 100 % of control | T/C (endpoint: mean survival time, dose: 14.75 mg/kg/injection, schedule: Q01DX009 (ip), vehicle: Klucel (hydroxypropylcellulose) (HPC)): 100 % of control | T/C (endpoint: mean survival time, dose: 29.5 mg/kg/injection, schedule: Q01DX009 (ip), vehicle: Klucel (hydroxypropylcellulose) (HPC)): 108 % of control | T/C (endpoint: mean survival time, dose: 59.0 mg/kg/injection, schedule: Q01DX009 (ip), vehicle: Klucel (hydroxypropylcellulose) (HPC)): 108 % of control | T/C (endpoint: mean survival time, dose: 118.0 mg/kg/injection, schedule: Q01DX009 (ip), vehicle: Klucel (hydroxypropylcellulose) (HPC)): 120 % of control and 107 % of control

O=C(O)c1ccccn1
T/C (endpoint: mean survival time, dose: 50.0 mg/kg/injection, schedule: Q04HX027 (ip), vehicle: saline): 102 % of control | T/C (endpoint: mean survival time, dose: 100.0 mg/kg/injection, schedule: Q04HX027 (ip), vehicle: saline): 93 % of control

O=C(CCl)Nc1cccc(Cl)c1
T/C [1]: 92 % of control | T/C [2]: 97 % of control | T/C [3]: 95 % of control | T/C [4]: 111 % of control | T/C [6]: 104 % of control

CC1(C)N=C(N)N=C(N)N1c1ccc(OCCOc2ccc(S(=O)(=O)F)cc2)c(Cl)c1
T/C (endpoint: mean survival time, dose: 25.0 mg/kg/injection, schedule: Q04DX003 (ip), vehicle: saline with Tween-80): 114 % of control | T/C [2]: 120 % of control

COC(=O)[C@]1(C)CCC[C@]2(C)[C@H]3CC4OO[C@@]3(CC[C@H]21)[C@H]1O[C@@]41C(C)C
T/C [1]: 97 % of control | T/C (endpoint: mean survival time, dose: 125.0 mg/kg/injection, schedule: Q01DX009 (ip), vehicle: Klucel (hydroxypropylcellulose) (HPC)): 96 % of control | T/C [3]: 101 % of control | T/C (endpoint: mean survival time, dose: 250.0 mg/kg/injection, schedule: Q01DX009 (ip), vehicle: Klucel (hydroxypropylcellulose) (HPC)): 96 % of control | T/C [5]: 98 % of control | T/C (endpoint: mean survival time, dose: 500.0 mg/kg/injection, schedule: Q01DX009 (ip), vehicle: Klucel (hydroxypropylcellulose) (HPC)): 97 % of control

Brc1cscc1-c1cccc2ccccc12
T/C [10]: 95 % of control | T/C [11]: 95 % of control | T/C [7]: 95 % of control

CC1(O)CCC(C)(O)CC1 (centres undefined)
T/C [12]: 107 % of control and 103 % of control | T/C [13]: 95 % of control and 98 % of control | T/C [8]: 107 % of control and 98 % of control | T/C [9]: 103 % of control

N#CC(C#N)CN(C1=NCCO1)c1cccc2c1CCCC2
T/C [12]: 94 % of control | T/C [13]: 94 % of control | T/C [8]: 98 % of control | T/C [2]: 89 % of control | T/C [6]: 89 % of control

CCOc1ccc(Br)cc1/C=N/NS(=O)(=O)c1ccc(C)cc1
T/C [11]: 111 % of control | T/C [7]: 114 % of control | T/C [1]: 113 % of control

C[CH2][Sn]1([CH2]C)[O]C2C(CO)OC(n3cnc4c(=O)[nH]c(N)nc43)C2[O]1 (centres undefined)
T/C (endpoint: mean survival time, dose: 0.78 mg/kg/injection, schedule: Q01DX005 (ip), vehicle: other): 100 % of control | T/C (endpoint: mean survival time, dose: 1.56 mg/kg/injection, schedule: Q01DX005 (ip), vehicle: other): 100 % of control | T/C (endpoint: mean survival time, dose: 3.13 mg/kg/injection, schedule: Q01DX005 (ip), vehicle: other): 104 % of control | T/C (endpoint: mean survival time, dose: 6.25 mg/kg/injection, schedule: Q01DX005 (ip), vehicle: other): 102 % of control | T/C (endpoint: mean survival time, dose: 12.5 mg/kg/injection, schedule: Q01DX005 (ip), vehicle: other): 96 % of control and 110 % of control

CC(=O)Nc1cc(CN2CCCCC2)c(O)c2ncccc12
T/C (endpoint: mean survival time, dose: 75.0 mg/kg/injection, schedule: Q01DX001 (ip), vehicle: other): 102 % of control | T/C (endpoint: mean survival time, dose: 150.0 mg/kg/injection, schedule: Q01DX001 (ip), vehicle: other): 102 % of control

NC1CCCCC1N.O=C(Nc1ccc2c(O)cc(S(=O)(=O)[O-])cc2c1)c1ccccc1.O=C(Nc1ccc2c(O)cc(S(=O)(=O)[O-])cc2c1)c1ccccc1.[Pt+4]
T/C (endpoint: median survival time, dose: 1.56 mg/kg/injection, schedule: Q04DX003 (ip), vehicle: saline with Tween-80): 166 % of control | T/C (endpoint: median survival time, dose: 3.12 mg/kg/injection, schedule: Q04DX003 (ip), vehicle: saline with Tween-80): 204 % of control and 344 % of control | T/C (endpoint: median survival time, dose: 6.25 mg/kg/injection, schedule: Q04DX003 (ip), vehicle: saline with Tween-80): 289 % of control and 344 % of control | T/C (endpoint: median survival time, dose: 12.5 mg/kg/injection, schedule: Q04DX003 (ip), vehicle: saline with Tween-80): 289 % of control | T/C (endpoint: median survival time, dose: 25.0 mg/kg/injection, schedule: Q04DX003 (ip), vehicle: saline with Tween-80): 91 % of control

O=S(=O)(N=N/C=C1\C=CC=CN1O)c1cccs1
T/C [10]: 95 % of control | T/C [11]: 101 % of control | T/C [7]: 103 % of control | T/C [1]: 109 % of control | T/C [3]: 104 % of control

Cc1ccc(NC(=O)N(CCCl)N=O)cc1Cl
T/C (endpoint: mean survival time, dose: 13.0 mg/kg/injection, schedule: Q01DX001 (ip), vehicle: carboxymethylcellulose (CMC)): 176 % of control

Cc1ccc(NC(=O)Nc2ccccc2C(N)=O)c([N+](=O)[O-])c1
T/C (endpoint: mean survival time, dose: 100.0 mg/kg/injection, schedule: Q01DX009 (ip), vehicle: Klucel (hydroxypropylcellulose) (HPC)): 95 % of control | T/C (endpoint: mean survival time, dose: 200.0 mg/kg/injection, schedule: Q01DX009 (ip), vehicle: Klucel (hydroxypropylcellulose) (HPC)): 89 % of control | T/C (endpoint: mean survival time, dose: 400.0 mg/kg/injection, schedule: Q01DX009 (ip), vehicle: Klucel (hydroxypropylcellulose) (HPC)): 95 % of control
